# Results taken from PubChem BioAssay AID2060912 (Molecular Pharmacology Branch, DTP, NCI, 2025).
# Tested on: HUVEC/MSC spheroids viability
# Experiment: Human HUVEC/MSC cell line growth inhibition [KRAS2];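 for viability, T/C: percent of DMSO vehicle control luminescence so 100% = untreated viability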
# Settings: for IC50: curve of first compound; for viability, T/C: stronger effect = lower value
# Method in brief: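 The concentration series started at or near clinical Cmax (10 microM if not known) and fell in half-log increments, alone or in combination. Cells were stromal-only spheroids of pooled-donor HUVEC and hMSC (passage </=5), with different drug plates and layout from the tumor spheroid screens.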
# [1] = second compound 0.0316 µM, first compound 0.0316 µM
# [2] = second compound 0.0316 µM, first compound 0.1 µM
# [3] = second compound 0.0316 µM, first compound 0.316 µM
# [4] = second compound 0.0316 µM, first compound 1 µM
# [5] = second compound 0.1 µM, first compound 0.0316 µM
# [6] = second compound 0.1 µM, first compound 0.1 µM
# [7] = second compound 0.1 µM, first compound 0.316 µM
# [8] = second compound 0.1 µM, first compound 1 µM
# [9] = second compound 0.316 µM, first compound 0.0316 µM
# [10] = second compound 0.316 µM, first compound 0.1 µM
# [11] = second compound 0.316 µM, first compound 0.316 µM
# [12] = second compound 0.316 µM, first compound 1 µM
# [13] = second compound 1 µM, first compound 0.0316 µM
# [14] = second compound 1 µM, first compound 0.1 µM
# [15] = second compound 1 µM, first compound 0.316 µM
# [16] = second compound 1 µM, first compound 1 µM
# [17] = second compound 3.16 µM, first compound 0.0316 µM
# [18] = second compound 3.16 µM, first compound 0.1 µM
# [19] = second compound 3.16 µM, first compound 0.316 µM
# [20] = second compound 3.16 µM, first compound 1 µM
# [21] = second compound 10 µM, first compound 0.0316 µM
# [22] = second compound 10 µM, first compound 0.1 µM
# [23] = second compound 10 µM, first compound 0.316 µM
# [24] = second compound 10 µM, first compound 1 µM
smiles,measurement,setting,value
O=C(c1cc(Cc2n[nH]c(=O)c3ccccc23)ccc1F)N1CCN(C(=O)C2CC2)CC1 + CC1OCC2(CCN(c3cnc(Sc4ccnc(N)c4Cl)c(N)n3)CC2)C1N,IC50,second compound 0.0316 µM,> 10 µM
same,IC50,second compound 0.1 µM,> 10 µM
same,IC50,second compound 0.316 µM,> 10 µM
same,IC50,second compound 1 µM,> 10 µM
same,IC50,second compound 3.16 µM,> 10 µM
same,IC50,second compound 10 µM,> 10 µM
same,"viability, T/C",[1],102%
same,"viability, T/C",[2],117%
same,"viability, T/C",[3],100%
same,"viability, T/C",[4],98.7%
same,"viability, T/C","second compound 0.0316 µM, first compound 3.16 µM",101%
same,"viability, T/C","second compound 0.0316 µM, first compound 10 µM",132%
same,"viability, T/C",[5],101%
same,"viability, T/C",[6],101%
same,"viability, T/C",[7],104%
same,"viability, T/C",[8],108%
same,"viability, T/C","second compound 0.1 µM, first compound 3.16 µM",109%
same,"viability, T/C","second compound 0.1 µM, first compound 10 µM",94.6%
same,"viability, T/C",[9],102%
same,"viability, T/C",[10],119%
same,"viability, T/C",[11],99%
same,"viability, T/C",[12],101%
same,"viability, T/C","second compound 0.316 µM, first compound 3.16 µM",88%
same,"viability, T/C","second compound 0.316 µM, first compound 10 µM",89.4%
same,"viability, T/C",[13],85.4%
same,"viability, T/C",[14],110%
same,"viability, T/C",[15],95.6%
same,"viability, T/C",[16],87.2%
same,"viability, T/C","second compound 1 µM, first compound 3.16 µM",86.6%
same,"viability, T/C","second compound 1 µM, first compound 10 µM",88.4%
same,"viability, T/C",[17],74.2%
same,"viability, T/C",[18],96.3%
same,"viability, T/C",[19],91.8%
same,"viability, T/C",[20],89.8%
same,"viability, T/C","second compound 3.16 µM, first compound 3.16 µM",98.1%
same,"viability, T/C","second compound 3.16 µM, first compound 10 µM",90.8%
same,"viability, T/C",[21],72.5%
same,"viability, T/C",[22],79.7%
same,"viability, T/C",[23],79.9%
same,"viability, T/C",[24],67.6%
same,"viability, T/C","second compound 10 µM, first compound 3.16 µM",81.5%
same,"viability, T/C","second compound 10 µM, first compound 10 µM",76.4%
CCN1CCN(Cc2ccc(Nc3ncc(F)c(-c4cc(F)c5nc(C)n(C(C)C)c5c4)n3)nc2)CC1 + COc1cc2nc(C)nc(NC(C)c3cc(N)cc(C(F)(F)F)c3)c2cc1OC1CCOC1,IC50,second compound 0.0316 µM,> 1 µM
same,IC50,second compound 0.1 µM,> 1 µM
same,IC50,second compound 0.316 µM,> 1 µM
same,IC50,second compound 1 µM,> 1 µM
same,IC50,second compound 3.16 µM,> 1 µM
same,IC50,second compound 10 µM,> 1 µM
same,"viability, T/C","second compound 0.0316 µM, first compound 0.00316 µM",93.3%
same,"viability, T/C","second compound 0.0316 µM, first compound 0.01 µM",77%
same,"viability, T/C",[1],87.6%
same,"viability, T/C",[2],80.3%
same,"viability, T/C",[3],93.4%
same,"viability, T/C",[4],122%
same,"viability, T/C","second compound 0.1 µM, first compound 0.00316 µM",77.7%
same,"viability, T/C","second compound 0.1 µM, first compound 0.01 µM",90.9%
same,"viability, T/C",[5],83.1%
same,"viability, T/C",[6],73.7%
same,"viability, T/C",[7],105%
same,"viability, T/C",[8],106%
same,"viability, T/C","second compound 0.316 µM, first compound 0.00316 µM",72.5%
same,"viability, T/C","second compound 0.316 µM, first compound 0.01 µM",92.5%
same,"viability, T/C",[9],79.4%
same,"viability, T/C",[10],79%
same,"viability, T/C",[11],96.1%
same,"viability, T/C",[12],121%
same,"viability, T/C","second compound 1 µM, first compound 0.00316 µM",76.1%
same,"viability, T/C","second compound 1 µM, first compound 0.01 µM",68.8%
same,"viability, T/C",[13],71.2%
same,"viability, T/C",[14],77.2%
same,"viability, T/C",[15],95.7%
same,"viability, T/C",[16],117%
same,"viability, T/C","second compound 3.16 µM, first compound 0.00316 µM",65.8%
same,"viability, T/C","second compound 3.16 µM, first compound 0.01 µM",74.4%
same,"viability, T/C",[17],65.4%
same,"viability, T/C",[18],69.9%
same,"viability, T/C",[19],77%
same,"viability, T/C",[20],103%
same,"viability, T/C","second compound 10 µM, first compound 0.00316 µM",63.7%
same,"viability, T/C","second compound 10 µM, first compound 0.01 µM",76.7%
same,"viability, T/C",[21],65.7%
same,"viability, T/C",[22],56.4%
same,"viability, T/C",[23],66.5%
same,"viability, T/C",[24],75%
